Article PMC2576176, “Direct activation of Transient Receptor Potential Vanilloid 1(TRPV1) by Diacylglycerol (DAG)” (Molecular Pain, 2008)
pEC50: −log10 of the molar value.

Molecular target: T1, TRPV1 (transient receptor potential vanilloid 1, capsaicin receptor) (Rattus norvegicus, UniProt O35433)
T1 construct: full-length wild-type rat TRPV1 in pcDNA3.1(+), transient transfection in HEK 293 cells; fura-2 Ca2+ imaging
Experiment: fura-2 Ca2+ imaging concentration-response in TRPV1-expressing HEK […] cells; whole-cell patch clamp, cobalt uptake, Y511A mutant and competition with capsaicin
Assay type: cell-based

T1 sequence (O35433 whole entry): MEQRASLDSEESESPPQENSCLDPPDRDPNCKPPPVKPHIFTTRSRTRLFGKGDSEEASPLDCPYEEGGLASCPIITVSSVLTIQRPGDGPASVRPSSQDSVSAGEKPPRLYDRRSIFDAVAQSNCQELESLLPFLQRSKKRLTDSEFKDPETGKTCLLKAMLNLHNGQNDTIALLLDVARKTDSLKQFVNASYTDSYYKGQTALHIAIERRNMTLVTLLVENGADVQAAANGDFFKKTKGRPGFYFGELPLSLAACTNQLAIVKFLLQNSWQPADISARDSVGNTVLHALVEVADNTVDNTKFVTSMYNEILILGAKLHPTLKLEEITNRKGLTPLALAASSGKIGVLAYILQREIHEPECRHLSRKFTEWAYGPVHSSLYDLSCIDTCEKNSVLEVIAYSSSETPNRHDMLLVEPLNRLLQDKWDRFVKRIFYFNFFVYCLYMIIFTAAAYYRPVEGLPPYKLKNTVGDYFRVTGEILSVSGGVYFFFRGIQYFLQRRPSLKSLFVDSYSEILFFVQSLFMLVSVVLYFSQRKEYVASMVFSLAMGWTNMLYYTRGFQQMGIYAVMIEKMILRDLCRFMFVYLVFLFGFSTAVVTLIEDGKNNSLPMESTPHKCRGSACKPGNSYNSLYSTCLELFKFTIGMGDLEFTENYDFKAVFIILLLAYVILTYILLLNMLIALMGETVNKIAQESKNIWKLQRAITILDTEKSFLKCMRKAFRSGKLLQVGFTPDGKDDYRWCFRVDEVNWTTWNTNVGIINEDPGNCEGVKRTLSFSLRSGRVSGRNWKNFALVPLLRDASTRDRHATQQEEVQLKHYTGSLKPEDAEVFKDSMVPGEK

pEC50: 4.89
Structure (SMILES): CCCCCCCC/C=C\CCCCCCCC(=O)OC[C@H](CO)OC(C)=O [OAG, 1-oleoyl-2-acetyl-sn-glycerol]
